Source: paper PMC5681660, “Reduced hepatitis B and D viral entry using clinically applied drugs as novel inhibitors of the bile acid transporter NTCP” (Scientific Reports, 2017)
Entries after “also recorded” stand apart in the source; their conditions may differ. Like-named read-outs stand apart in the source and are kept apart here.

Experiments:
[1] = tested on: HBV; experiment: HBV infection of primary human hepatocytes (literature); assay type: cell-based, hepatitis B virus
[2] = tested on: HBV; details: primary human hepatocytes, cited from earlier work
[3] = tested on: HDV RNA and HBV DNA serum levels; details: chronic hepatitis delta patients, 24 weeks; cited from earlier work
[4] = biological target: T1, human NTCP (Homo sapiens, UniProt Q14973); experiment: Sodium dependent tauro-ursodeoxycholic acid uptake into U2OS-HA-hNTCP cells; assay type: cell-based; set-up: HA; expressed in transfected cells
T1 sequence (Q14973 1-349): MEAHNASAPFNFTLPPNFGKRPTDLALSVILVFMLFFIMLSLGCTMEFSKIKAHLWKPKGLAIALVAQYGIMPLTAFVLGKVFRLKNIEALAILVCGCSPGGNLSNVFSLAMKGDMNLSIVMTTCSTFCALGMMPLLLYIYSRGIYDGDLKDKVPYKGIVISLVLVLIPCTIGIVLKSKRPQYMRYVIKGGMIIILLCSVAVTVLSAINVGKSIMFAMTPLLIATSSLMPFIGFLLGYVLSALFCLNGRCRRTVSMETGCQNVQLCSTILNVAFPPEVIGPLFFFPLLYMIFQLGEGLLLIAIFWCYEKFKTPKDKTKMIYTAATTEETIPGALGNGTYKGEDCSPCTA
Experimental: Figure 4 Myrcludex B inhibits uptake of tauro-ursodeoxycholic acid. Sodium dependent tauro-ursodeoxycholic acid uptake into U2OS-HA-hNTCP cells was reduced in the presence of Myrcludex B. N = 6 wells/condition, data are depicted as mean ± SD.
Buffers were set to pH 7.4, at room temperature. After washing, cells were pre-incubated for 10 minutes with drugs in 50 µL uptake buffer. […] After incubation, buffer was removed and cells were washed 2x with ice-cold PBS. Cells were lysed for a minimum of 30 minutes in 30 µL/well 0.05% SDS in water. When lysis was complete, 120 µL MicroScint™-20 (PerkinElmer) was added to the wells and radioactivity was measured by liquid scintillation counting.

Substance: Myrcludex B
- fold lower concentration for blocking HBV infection than IC50 for bile acid transport [1]: at least 50 fold
- IC50 ([2]; read-out: concentration inhibiting HBV infection, HBeAg): 0.083 nM
- IC50 ([2]; read-out: concentration inhibiting HBV infection, HBsAg): 0.669 nM
- HDV RNA and HBV DNA serum levels [3]: Largely reduced
- sodium-dependent uptake of tauro-ursodeoxycholic acid [4]: largely inhibited; also recorded: reduced
